The test system of assay [1] is HT-29, K-562 and KG-1 cells. Kind of assay: GTP pool depletion and repletion, and cell cycle block, in cell lines. Format: cell-based, human. As to the method:
The present identification of relevant biomarkers was cognizant of the need to capture genes that move with respect to relevant clinical experiments. For example, IMPDH inhibition results in the cell cycle halting at the G1 border. […] Concentration depletion of GTP was measured in HT-29, K-562 and KG-1 cells. DMSO was used as control. […] For example, PDE7A and RRM2 were deregulated only on GTP repletion (which occurred within 90 minutes after drug removal). Thus, the present experiments have correlated gene involvement with the real biological endpoint for IMPDH inhibition.

The target in assay [2] is both IMPDH isozymes. The following applies: cited from earlier work.
Assay [3] concerns human peripheral lymphocytes stimulated with either B-cell or T-cell mitogens. The following applies: cited from earlier work.

pIC50, pKi: −log10 of the molar value.

In the case of `CC[C@H](CC#N)OC(=O)N[C@@H](C)c1cccc(NC(=O)Nc2ccc(-c3cnco3)c(OC)c2)c1` [AVN-944], in assay [1] (HT-29, K-562 and KG-1 cells, DMSO control), the “Effect on GTP pools” value was “depleted GTP pools”. The “Time to GTP repletion after drug removal” value in assay [1] (after drug removal) was no more than 90 min. The “Effect on cell cycle” value in assay [1] (at concentrations of AVN-944 that depleted GTP pools) is “S phase cell cycle block”. The pKi in assay [2] is 8.00 to 8.15. In assay [3], the pIC50 is 7.00 to 7.70.

As a reminder, the pKi is −log10 of the Ki, conventionally taken in molar units. As usually defined, the pIC50 is the IC50 on a negative log10 scale, so that one unit is a factor of ten.

(Values after patent US20100015620A1, “CANCER-LINKED GENES AS BIOMARKERS TO MONITOR RESPONSE TO IMPDH INHIBITORS” (priority 2006, published 2010).)
